Source: patent publication US11135252B2, “Probiotic therapies for developmental disorders and other neurological disorders” (Baylor College of Medicine, priority 2016, dated 2021)
Entries after “also recorded” stand apart in the source; their conditions may differ.

System: MHFD offspring
Assay: Open field test in MHFD offspring
Format: in vivo, mice
Details: L. reuteri in drinking water
Description: Mice were placed in an open arena (40×40×20 cm) and allowed to explore freely for 10 minutes while their position was continually monitored using tracking software (ANY-Maze). Tracking allowed for measurement of distance traveled, speed, and position in the arena throughout the task. Time spent in the center of the arena, defined as the interior 20×20 cm, was recorded. Lactobacillus reuteri MM4-1A (ATCC-PTA-6475) and Lactobacillus johnsonii (ATCC 33200) were cultured anaerobically in MRS broth in a 90% N2, 5% CO2, 5% H2 environment. L. reuteri was heat-killed by keeping the bacteria at 80° C. for 20 minutes (Wang et al., 2010). Bacterial viability was assessed by plating and the efficacy of the heat-kill procedure was confirmed by the absence of colony growth following plating. Cultures were centrifuged, washed, and resuspended in anaerobic solution (PBS) and frozen at −80° C. until use. PBS, live or heat-killed L. reuteri were added to the drinking water, which was changed daily to minimize dosage variability. Whereas the experimental group received live bacteria, one control group received identically prepared cultures of heat-killed bacteria. A second group of control mice received water treated with PBS alone. Live and heat-killed L. reuteri were supplied at a dosage of 1×10^8 organisms/mouse/day continuously in drinking water. […]

Lactobacillus reuteri MM4-1A (ATCC-PTA-6475) [L. reuteri]
time exploring the center of the open field arena (anxiety-related behavior): failed to rescue the changes in anxiety; also recorded: did not significantly affect this behavior
